From patent US9365862B1, “Herbicide resistant sorghum mutants” (NUtech Ventures, priority 2011, dated 2016)

Key:
Assay in all cases: Greenhouse bioassay for resistance to ALS-inhibiting herbicides (dry matter, visual injury)
Format in all cases: in vivo, Shattercane (Sorghum bicolor subsp. X drummondii)
[1] = system: shattercane biotype P8-30 (Mutant C); details: for resistance of the biotype to the herbicide: biotype P8-30 (Mutant C), relative to the wild-type, dry matter and visual ratings; for growth reduction: biotype P8-30, growth in the three weeks after herbicide application
Description: (§1) The bioassay experiment was conducted in a greenhouse on the East Campus of the University of Nebraska-Lincoln, in Lincoln, Nebr. The experimental design was a randomized complete block. Shattercane seed was planted in 0.9 L square plastic pots in Miracle-Gro® Moisture Control® Potting Mix (The Scotts Company LLC, Marysville, Ohio). The photoperiod was 15/9 light/dark with supplemental light provided by sodium halide lamps. Greenhouse temperatures were maintained at 24±2 C (day) and 19±2 C (night). Shattercane was thinned to 1 plant per pot when it reached the 2 leaf stage. Herbicide treatments (Table 1 in Appendix I) were applied when the shattercane reached the V4 growth stage and was approximately 12 cm tall. Individual plants ranged from growth stage V3 to V5, and in height from 7 to 19 cm. At least one tiller had formed on most plants by the time of application. Herbicides were applied using an 8001 even flat fan nozzle at 207 kPa in a single-tip track sprayer located in the greenhouse facility. The application rate was 187 l/ha, and treatment solutions were prepared in distilled water. Visual injury ratings were made 7, 14 and 21 days after treatment on a scale of 0 to 100, where 0 represents no injury and 100 represents plant death. At 21 DAT, plants were harvested at the soil surface, dried for 48 h at 70 C, and weighed to determine dry matter. Dry matter data for each experimental unit was divided by the average dry matter of the untreated control plants of that biotype and multiplied by 100 to determine relative percent biomass to the untreated control. Dry matter data for each experimental unit was also divided by the average dry matter data of the glyphosate-treated plants of that biotype to determine growth in the three weeks after herbicide application. Data were subjected to ANOVA using Proc GLM of SAS 9.1 (SAS Institute Inc., Cary, N.C.). The Run by Herbicide by Population interaction was significant for each variable, so runs were analyzed separately. The Herbicide by Population interaction was also significant for each run and each variable, so data were analyzed by herbicide to describe differences among the populations. Treatment means were separated using Duncan's Multiple Range test.

[2] = system: shattercane biotype P2-205 (Mutant A); details: dry matter and visual ratings
Description: as §1

[3] = system: shattercane biotype P9-102 (Mutant B); details: dry matter and visual ratings
Description: as §1

[4] = system: shattercane biotype 5-4Farm (Mutant D); details: plants harvested 21 DAT
Description: as §1

wild type shattercane = details: wild type biotype, plants harvested 21 DAT
Description: as §1

Compound	resistance of the biotype to the herbicide [1]	resistance of the biotype to the herbicide [2]	resistance of the biotype to the herbicide [3]	other results
CC(C)C1(C)N=C(c2nc3ccccc3cc2C(=O)O)NC1=O (stereo not drawn) [Imazaquin]	resistance	–	–	–
COc1nc(C)nc(NC(=O)NS(=O)(=O)c2ccccc2Cl)n1 [chlorsulfuron]	resistance	resistant	resistance	resistance of the biotype to the herbicide ([2]; listed as Chlorsulfuron): resistance
CCc1cnc(C2=NC(C)(C(C)C)C(=O)N2)c(C(=O)O)c1 (stereo not drawn) [Imazethapyr]	resistance	–	–	–
COc1cc(OC)nc(Oc2cccc(Oc3nc(OC)cc(OC)n3)c2C(=O)O)n1 [bispyribac]	partial resistance	–	–	resistance of the biotype to the herbicide ([1]; listed as Bispyribac): resistance; growth reduction [1]: approximately 65%
CCCOc1nn(C(=O)[N-]S(=O)(=O)c2ccccc2C(=O)OC)c(=O)n1C.[Na+] [propoxycarbazone]	resistance	resistant	resistant	resistance of the biotype to the herbicide ([2]; listed as Propoxycarbazone): resistance; resistance of the biotype to the herbicide ([3]; listed as Propoxycarbazone): resistance
COc1nn(C(=O)NS(=O)(=O)c2c(C(=O)O)csc2C)c(=O)n1C [thiencarbazone]	resistance	partially resistant	partially resistant	resistance of the biotype to the herbicide ([2]; listed as Thiencarbazone): resistance; resistance of the biotype to the herbicide ([3]; listed as Thiencarbazone): resistance
COc1cnc(OC)n2nc(NS(=O)(=O)c3c(OCC(F)F)cccc3C(F)(F)F)nc12 [penoxsulam]	–	–	–	effect on dry matter [4]: did not reduce dry matter; effect on dry matter (wild type shattercane): did not reduce dry matter
CCS(=O)(=O)c1cccnc1S(=O)(=O)NC(=O)Nc1nc(OC)cc(OC)n1 [rimsulfuron]	partial resistance	–	–	resistance of the biotype to the herbicide ([1]; listed as Rimsulfuron): resistance; growth reduction [1]: ~84%
COCc1cnc(C2=NC(C)(C(C)C)C(=O)N2)c(C(=O)O)c1 (stereo not drawn) [imazamox]	resistance	partially resistant	–	resistance of the biotype to the herbicide ([2]; listed as Imazamox): resistance
COc1cc(OC)nc(NC(=O)NS(=O)(=O)c2cc(NC=O)ccc2C(=O)N(C)C)n1 [foramsulfuron]	resistance	partially resistant	resistant	resistance of the biotype to the herbicide ([2]; listed as Foramsulfuron): resistance; resistance of the biotype to the herbicide ([3]; listed as Foramsulfuron): resistance
COc1cc(OC)nc(NC(=O)NS(=O)(=O)c2ncccc2C(=O)N(C)C)n1 [nicosulfuron]	resistance	–	resistant	–
O=C(Nc1nc(OC(F)F)cc(OC(F)F)n1)NS(=O)(=O)c1ccccc1C(=O)O [primisulfuron]	resistance	partially resistant	partially resistant	resistance of the biotype to the herbicide ([2]; listed as Primisulfuron): resistance; resistance of the biotype to the herbicide ([3]; listed as Primisulfuron): resistance
